# Data taken from PMC10268488, “Indole-carbohydrazide linked phenoxy-1,2,3-triazole-N-phenylacetamide derivatives as potent α-glucosidase inhibitors: design, synthesis, in vitro α-glucosidase inhibition, and computational studies” (BMC Chemistry, 2023).
# Where two headings read alike, the source gives them in different places.
# Columns and labels:
# [1] = molecular target: T1, yeast α-glucosidase (Saccharomyces cerevisiae, UniProt P53341); assay: biochemical; assay type: biochemical; settings: for diminished inhibitory activity relative to compound 11d: replacement of methoxy substituent of 11d
# [2] = molecular target: T1, yeast α-glucosidase; assay: Kinetic study of α-glucosidase inhibition (Lineweaver–Burk plots); assay type: biochemical; settings: for mechanism of α-glucosidase inhibition: Lineweaver–Burk plots, both Vmax and Km decreased; for Ki: Lineweaver–Burk secondary plot, substrate p-nitrophenyl-glucopyranoside 1–4 mM
# Excerpt: Then, the Lineweaver-Burke plots were depicted using by the reciprocal of velocity and substrate concentration (Fig. 5).
# [3] = test system: normal human dermal fibroblast (HDF) cell line; assay: In vitro cytotoxicity assay; assay type: cell-based; settings: HDF cells, 50 μM concentration
# Protocol: To assess of the cytotoxic effects of the new synthesized compounds, cytotoxicity of compounds 11d and 11n as the representative compounds was evaluated against the normal human dermal fibroblast (HDF) cell line.
# Evaluation of cytotoxic effects of the synthesized compounds 11d and 11n was performed exactly based on our previous report.
# [4] = read-out: IC50 (anti-α-glucosidase activity)
# T1 sequence (P53341 whole entry): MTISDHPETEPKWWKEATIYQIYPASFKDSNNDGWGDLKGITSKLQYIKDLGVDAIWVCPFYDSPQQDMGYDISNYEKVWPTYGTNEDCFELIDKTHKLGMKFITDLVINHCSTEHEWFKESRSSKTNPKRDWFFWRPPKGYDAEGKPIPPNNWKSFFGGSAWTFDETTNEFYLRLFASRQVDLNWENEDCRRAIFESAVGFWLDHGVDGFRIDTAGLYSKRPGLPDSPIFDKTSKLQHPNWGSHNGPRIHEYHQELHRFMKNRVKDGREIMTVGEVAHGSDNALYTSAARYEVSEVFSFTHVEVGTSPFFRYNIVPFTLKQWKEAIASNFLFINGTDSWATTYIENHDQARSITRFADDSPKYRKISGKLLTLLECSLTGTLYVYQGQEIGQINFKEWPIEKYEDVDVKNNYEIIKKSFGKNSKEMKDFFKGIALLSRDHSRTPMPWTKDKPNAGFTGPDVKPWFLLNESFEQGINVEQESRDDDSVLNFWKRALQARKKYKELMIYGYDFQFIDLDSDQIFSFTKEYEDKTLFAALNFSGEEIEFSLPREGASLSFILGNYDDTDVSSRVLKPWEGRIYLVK
Compound,melting point [°C],"IC50 [1, 4] [µM]",IC50 [1] [µM],further results
"O=C(Cn1cc(COc2ccc(/C=N/NC(=O)c3cc4ccccc4[nH]3)cc2)nn1)Nc1ccccc1 [Compound 11a, (E)-2-(4-((4-((2-(1H-indole-2-carbonyl)hydrazono)methyl)phenoxy)methyl)-1H-1,2,3-triazol-1-yl)-N-phenylacetamide]",194 to 196,15.2 ± 0.18,,
"Cc1ccccc1NC(=O)Cn1cc(COc2ccc(/C=N/NC(=O)c3cc4ccccc4[nH]3)cc2)nn1 [Compound 11b, (E)-2-(4-((4-((2-(1H-indole-2-carbonyl)hydrazono)methyl)phenoxy)methyl)-1H-1,2,3-triazol-1-yl)-N-(o-tolyl)acetamide]",,8.88 ± 0.07,,mechanism of α-glucosidase inhibition [2]: uncompetitive inhibitors; Ki [2]: 8.5 µM
"Cc1ccc(NC(=O)Cn2cc(COc3ccc(/C=N/NC(=O)c4cc5ccccc5[nH]4)cc3)nn2)cc1 [Compound 11c, (E)-2-(4-((4-((2-(1H-indole-2-carbonyl)hydrazono)methyl)phenoxy)methyl)-1H-1,2,3-triazol-1-yl)-N-(p-tolyl)acetamide]",,19.12 ± 0.08,,diminished inhibitory activity relative to compound 11d [1]: 3 folds
"COc1ccc(NC(=O)Cn2cc(COc3ccc(/C=N/NC(=O)c4cc5ccccc5[nH]4)cc3)nn2)cc1 [Compound 11d, (E)-2-(4-((4-((2-(1H-indole-2-carbonyl)hydrazono)methyl)phenoxy)methyl)-1H-1,2,3-triazol-1-yl)-N-(4-methoxyphenyl)acetamide]",,6.31 ± 0.03,,mechanism of α-glucosidase inhibition [2]: uncompetitive inhibitors; Ki [2]: 6.3 µM; cytotoxicity on normal cell line [3]: non-cytotoxic; times more potent than acarbose ([1]; ratio of IC50 values vs acarbose): 118.8 times
"O=C(Cn1cc(COc2ccc(/C=N/NC(=O)c3cc4ccccc4[nH]3)cc2)nn1)Nc1ccccc1Cl [Compound 11e, (E)-2-(4-((4-((2-(1H-indole-2-carbonyl)hydrazono)methyl)phenoxy)methyl)-1H-1,2,3-triazol-1-yl)-N-(2-chlorophenyl)acetamide]",> 250,,26.97 ± 0.25,
"O=C(Cn1cc(COc2ccc(/C=N/NC(=O)c3cc4ccccc4[nH]3)cc2)nn1)Nc1ccc(Cl)cc1 [Compound 11f, (E)-2-(4-((4-((2-(1H-indole-2-carbonyl)hydrazono)methyl)phenoxy)methyl)-1H-1,2,3-triazol-1-yl)-N-(4-chlorophenyl)acetamide]",174 to 176,9.53 ± 0.12,,diminished inhibitory activity relative to compound 11d [1]: 1.5 folds
"O=C(Cn1cc(COc2ccc(/C=N/NC(=O)c3cc4ccccc4[nH]3)cc2)nn1)Nc1ccc(Br)cc1 [Compound 11g, (E)-2-(4-((4-((2-(1H-indole-2-carbonyl)hydrazono)methyl)phenoxy)methyl)-1H-1,2,3-triazol-1-yl)-N-(4-bromophenyl)acetamide]",,49.89 ± 0.09,,diminished inhibitory activity relative to compound 11d [1]: 8 folds
"Cc1cc(NC(=O)Cn2cc(COc3ccc(/C=N/NC(=O)c4cc5ccccc5[nH]4)cc3)nn2)ccc1[N+](=O)[O-] [Compound 11h, (E)-2-(4-((4-((2-(1H-indole-2-carbonyl)hydrazono)methyl)phenoxy)methyl)-1H-1,2,3-triazol-1-yl)-N-(3-methyl-4-nitrophenyl)acetamide]",200 to 202,,35.11 ± 0.07,
"COc1cc(/C=N/NC(=O)c2cc3ccccc3[nH]2)ccc1OCc1cn(CC(=O)Nc2ccccc2)nn1 [Compound 11i, (E)-2-(4-((4-((2-(1H-indole-2-carbonyl)hydrazono)methyl)-2-methoxyphenoxy)methyl)-1H-1,2,3-triazol-1-yl)-N-phenylacetamide]",,,11.3 ± 0.15,
"COc1ccc(NC(=O)Cn2cc(COc3ccc(/C=N/NC(=O)c4cc5ccccc5[nH]4)cc3OC)nn2)cc1 [Compound 11j, (E)-2-(4-((4-((2-(1H-indole-2-carbonyl)hydrazono)methyl)-2-methoxyphenoxy)methyl)-1H-1,2,3-triazol-1-yl)-N-(4-methoxyphenyl)acetamide]",,24.19 ± 0.1,,
"COc1cc(/C=N/NC(=O)c2cc3ccccc3[nH]2)ccc1OCc1cn(CC(=O)Nc2ccc(Cl)cc2)nn1 [Compound 11k, (E)-2-(4-((4-((2-(1H-indole-2-carbonyl)hydrazono)methyl)-2-methoxyphenoxy)methyl)-1H-1,2,3-triazol-1-yl)-N-(4-chlorophenyl)acetamide]",184 to 186,31.56 ± 0.12,,
"COc1cc(/C=N/NC(=O)c2cc3ccccc3[nH]2)ccc1OCc1cn(CC(=O)Nc2cccc(Cl)c2Cl)nn1 [Compound 11l, (E)-2-(4-((4-((2-(1H-indole-2-carbonyl)hydrazono)methyl)-2-methoxyphenoxy)methyl)-1H-1,2,3-triazol-1-yl)-N-(2,3-dichlorophenyl)acetamide]",,,18.2 ± 0.81,
"COc1cc(/C=N/NC(=O)c2cc3ccccc3[nH]2)ccc1OCc1cn(CC(=O)Nc2cc(Cl)cc(Cl)c2)nn1 [Compound 11m, (E)-2-(4-((4-((2-(1H-indole-2-carbonyl)hydrazono)methyl)-2-methoxyphenoxy)methyl)-1H-1,2,3-triazol-1-yl)-N-(3,5-dichlorophenyl)acetamide]",247 to 249,,14.2 ± 0.21,
"COc1cc(/C=N/NC(=O)c2cc3ccccc3[nH]2)ccc1OCc1cn(CC(=O)Nc2ccc(Br)cc2)nn1 [Compound 11n, (E)-2-(4-((4-((2-(1H-indole-2-carbonyl)hydrazono)methyl)-2-methoxyphenoxy)methyl)-1H-1,2,3-triazol-1-yl)-N-(4-bromophenyl)acetamide]",,8.3 ± 0.16,,mechanism of α-glucosidase inhibition [2]: uncompetitive inhibitors; Ki [2]: 8.3 µM; cytotoxicity on normal cell line [3]: non-cytotoxic
"COc1cc(/C=N/NC(=O)c2cc3ccccc3[nH]2)ccc1OCc1cn(CC(=O)Nc2cccc([N+](=O)[O-])c2Cl)nn1 [Compound 11o, (E)-2-(4-((4-((2-(1H-indole-2-carbonyl)hydrazono)methyl)-2-methoxyphenoxy)methyl)-1H-1,2,3-triazol-1-yl)-N-(2-chloro-3-nitrophenyl)acetamide]",> 250,,12.67 ± 0.05,
